Assays:
[1] = system: broiler chickens; experiment: Growth performance trial with broiler chickens (day 8 to day 29); format: in vivo, chickens (ROSS PM3); conditions: for Feed conversion (g feed/g gain) / Feed conversion relative to control (control 100.0) / Feed intake (g/bird) / Feed intake relative to control (control 100.0) / Weight gain (g/bird) / Weight gain relative to control (control 100.0): Day 8-29
Protocol: A growth performance trial with broiler chickens was performed from day 8 to day 29. The chickens were housed in wire-floored battery cages. From day-old until day 8, the chickens were fed a pre-experimental diet based on wheat, maize and soybean meal. In the experimental period (day 8 to 29) the chickens received diets based on wheat, rye and soybean meal (composition see Table 1). Groups of birds were weighed on days 8, 15, 22 and 29. The feed consumption for the intermediate periods was determined and body weight gain and feed conversion ratio were calculated.
Beside an un-supplemented control treatment and a positive control containing 10 mg of the antibiotic Avilamycin per kg feed, benzoic acid (VevoVitall) was included at 500 mg per kg feed. In addition, per kg feed, combinations of 250 mg benzoic acid and 50 mg of the composition comprising thymol, eugenol and piperine (herein abbreviated by TEP) as well as either 500 mg benzoic acid and 25 mg TEP or 500 mg benzoic acid and 50 mg TEP were tested, respectively.

[2] = system: poultry; conditions: cited from earlier work
[3] = system: pig; conditions: cited from earlier work

Compound	Improvement in weight gain compared to the control ([1]; Avilamycin 10 mg per kg feed) [%]	Improvement of feed conversion (FCR) compared to the negative control ([1]; Avilamycin 10 mg per kg feed) [%]	Feed conversion (g feed/g gain) ([1]; dose 10 mg/kg feed)	Feed conversion relative to control (control 100.0) ([1]; dose 10 mg/kg feed)	Feed intake (g/bird) ([1]; dose 10 mg/kg feed)	Feed intake relative to control (control 100.0) ([1]; dose 10 mg/kg feed)	Weight gain (g/bird) ([1]; dose 10 mg/kg feed)	Weight gain relative to control (control 100.0) ([1]; dose 10 mg/kg feed)	Feed conversion (g feed/g gain) ([1]; dose 500 mg/kg feed)	Feed conversion relative to control (control 100.0) ([1]; dose 500 mg/kg feed)	Feed intake (g/bird) ([1]; dose 500 mg/kg feed)	Feed intake relative to control (control 100.0) ([1]; dose 500 mg/kg feed)	Weight gain (g/bird) ([1]; dose 500 mg/kg feed)	Weight gain relative to control (control 100.0) ([1]; dose 500 mg/kg feed)	Improvement in weight gain compared to the control ([1]; VevoVitall alone at 500 mg/kg) [%]	Dosage in feed at which undesired adverse effects occur [2] [mg/kg poultry feed]	Dosage in feed at which undesired adverse effects occur [3] [mg/kg pig feed]
COC[C@H]1O[C@@H](OC2OC[C@@H]3O[C@]4(O[C@H]3[C@H]2OC(=O)C(C)C)O[C@H](C)[C@@](O)(C(C)=O)[C@@H]2OCO[C@H]24)[C@@H](OC)[C@@H](O)[C@@H]1O[C@@H]1O[C@H](C)[C@H](OC)[C@H](O[C@H]2C[C@@]3(C)OC4(C[C@@H](O)[C@H](O[C@H]5C[C@@H](O)[C@H](OC(=O)c6c(C)c(Cl)c(O)c(Cl)c6OC)[C@@H](C)O5)[C@@H](C)O4)O[C@@H]3[C@@H](C)O2)[C@H]1O (some centres unmarked) [Avilamycin]	8.7	4.3	2.008 ± 0.052	95.7	2533 ± 199.6	104.1	1261 ± 76.8	108.7									
O=C(O)c1ccccc1 [VevoVitall, benzoic acid]									2.117 ± 0.093	100.8	2538 ± 309.6	104.3	1196 ± 103.0	103.1	3	> 5000	> 10000

— patent publication US8980335B2, “Use of organic acids and essential oils in animal feeding” (DSM IP Assets B.V., priority 2007, dated 2015)
